Laboratory results taken from BindingDB's records for doi:10.7270/Q2833QWM (D3R/Abbott, 2015).

Biological target: T1, tRNA (guanine-N(1)-)-methyltransferase (Haemophilus influenzae (strain ATCC 51907 / DSM 11121 / KW20 / Rd), UniProt P43912)
T1 sequence (P43912 whole entry): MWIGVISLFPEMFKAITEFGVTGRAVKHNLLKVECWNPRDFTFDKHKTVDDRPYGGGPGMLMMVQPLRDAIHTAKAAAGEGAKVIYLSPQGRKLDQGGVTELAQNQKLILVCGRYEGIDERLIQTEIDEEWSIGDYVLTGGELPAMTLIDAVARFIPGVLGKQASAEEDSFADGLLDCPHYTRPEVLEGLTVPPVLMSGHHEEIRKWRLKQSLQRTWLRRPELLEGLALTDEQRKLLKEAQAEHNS
Experiment: ScintillationProximity_Assay
Text: ScintillationProximity_Assay

| SMILES | IC50 |
| --- | --- |
| CN(C)c1ccccc1CNc1ccc(C(N)=O)cn1 [GTC000455A] | 6310 nM |
| Nc1nonc1C(=O)NC1CCNCC1 [GTC000465A] | 20000 nM |
| Cc1cccc(C(=O)NCCC2(CNc3ccc(C(N)=O)cn3)CCCCC2)c1 [GTC000461A] | 7940 nM |
| Nc1nonc1C(=O)N1CCN(Cc2ccccn2)CC1 [GTC000463A] | 15800 nM |
| c1cc(-c2c[nH]cn2)ccn1 | 158000 nM |
| Cc1cccc(C(=O)NCC2(NC(=O)c3cccc4nocc34)CCCC2)c1 [GTC000451A] | 158 nM |
| NC(=O)c1ccc(NCc2ccccc2N2CCOCC2)nc1 [GTC000470A] | 2000 nM |
| COc1ccc(C(=O)n2ncnc2N)cc1 [GTC000473A] | 2510 nM |
| Nc1nonc1C(=O)NCC1CCCCC1 [GTC000462A] | 2000 nM |
| c1cc(-c2ncc[nH]2)ccn1 [GTC000447A] | 316000 nM |
| NC(=O)c1ccc(NCc2ccccc2O)nc1 [GTC000459A] | 1260 nM |
| CC(C)(C)CNc1ncc(C(N)=O)c(N)n1 [GTC000474A] | 794 nM |
| NC[C@H]1CCC[C@@H](CNc2ccc(C(N)=O)cn2)C1 [GTC000469A] | 501 nM |
| NC(=O)c1ccc(NCc2cccc(O)c2)nc1 [GTC000452A] | 2000 nM |
| NC(=O)c1ccc(N)nc1 [GTC000445A] | 25100 nM |
| COc1ccccc1CNc1ccc(C(N)=O)cn1 [GTC000454A] | 794 nM |

| SMILES | IC50 |
| --- | --- |
| CC(C)(C)c1cccc(C(=O)NCC2(NC(=O)c3cccc4nocc34)CCCCC2)c1 [GTC000449A] | 5.01 nM |
| NC(=O)c1ccc(NC2CCC(c3ccccc3)C2)nc1 (stereo unspecified) [GTC000467A] | 631 nM |
| CN(C)c1cccc(CNc2ccc(C(N)=O)cn2)c1 [GTC000453A] | 3980 nM |
| CC(C)(C)c1cccc(C(=O)NCC2(NC(=O)c3cccc4nocc34)CCCC2)c1 [GTC000450A] | 5.01 nM |
| Nc1nonc1C(=O)N[C@@H]1CC[C@H](O)C1 [GTC000456A] | 7940 nM |
| NC(=O)c1ccc(NCC2CCCC2)nc1 [GTC000458A] | 501 nM |
| NC(=O)c1ccc(NC2CCCC2)nc1 [GTC000457A] | 200 nM |
| Nc1nonc1C(=O)N[C@@H]1C[C@H]1c1ccc(S(N)(=O)=O)cc1 [GTC000466A] | 15800 nM |
| CN1CCN(C(=O)c2nonc2N)CC1 [GTC000472A] | 100000 nM |
| Nc1nonc1C(=O)NCc1ccc(Cl)cc1 [GTC000448A] | 39800 nM |
| CN1CCN(c2ccccc2CNc2ccc(C(N)=O)cn2)CC1 [GTC000471A] | 794 nM |
| NC(=O)c1ccc(N[C@@H]2C[C@H](CO)[C@@H](O)C2)nc1 [GTC000468A] | 1590 nM |
| NC(=O)c1cnc(NC2CCCC2)nc1N [GTC000464A] | 631 nM |
| NC(=O)c1ccc(NCc2ccccc2)nc1 [GTC000444A] | 3160 nM |
| NC(=O)c1ccc(N[C@@H]2CC[C@@H](O)C2)nc1 [GTC000460A] | 200 nM |
